Experimental data taken from paper PMC2033546, “Effects of somatostatin analogue RC-160 and bombesin/gastrin-releasing peptide antagonists on the growth of human small-cell and non-small-cell lung carcinomas in nude mice” (British Journal of Cancer, 1994).
Bridges are numbered along the chain shown (N, C = ends). Where no end group is shown, it is not given here.

What was measured:
[1] = Body weight of tumour-bearing nude mice; settings: Table I, Experiment I (SCLC-H69), end of experiment; control 26.3 ? 2.3; means ? s.d.
Excerpt: Br. J. Cancer (1994). 70, 886 892 ? Macmillan Press Ltd.. […] Bombesin GRP antagonists. […] Lung carcinoma is the leading cause of cancer-related deaths in the western world. It is estimated that in 1992 there were approximately 168,000 new cases of lung cancer in the US and that about 146,000 deaths occurred from this disease (Boring et al., 1992). […] CeLs were passaged weekly and routinely monitored for myco- plasma contamination using a detection kit (Boehringer- Mannheim, Mannheim, Germany). […] The number of mitotic and apoptotic cells per 1,000 cells was determined, and the percentage area of necrosis in tumour sections was examined using the point-counting method (Szepeshazi et al., 1991, 1992), in which the crossing points of an ocular net that coincide with necrosis in various sections are counted. Radiommunoassays Serum levels of growth hormone were determined by double- antibody radioimmunoassay (RIA) using materials supplied by the National Hormone and Pituitary Program of the National Institute of Diabetes and Digestive and Kidney Diseases (NIDDK).

[2] = tested on: Somatostatin receptors in membranes of SCLC H69 tumours; assay: Somatostatin receptor binding on H69 tumour membranes after in vivo treatment; set-up: species or system human; settings: Table IV, Experiment I (SCLC-H69); tumour membranes after in vivo treatment; control 450; done once
Excerpt: (§1) Br. J. Cancer (1994). 70, 886 892 ? Macmillan Press Ltd.. […] Bombesin GRP antagonists. […] Lung carcinoma is the leading cause of cancer-related deaths in the western world. It is estimated that in 1992 there were approximately 168,000 new cases of lung cancer in the US and that about 146,000 deaths occurred from this disease (Boring et al., 1992). […] The growth factors such as bombesin/gastrin-releasing pep- tide (GRP), epidermal growth factor, (EGF), transforming growth factor a (TGF-x) and insulin-like growth factor I(IGF-I) appear to play a role in the proliferation and pro- gression of lung cancer (Cuttitta et al., 1985; Veale et al., 1987; Minuto et al., 1988; Siegfried & Owens, 1988; Macaulay et al., 1990; Tateishi et al., 1991; Damstrup et al., 1992; Sethi & Rozengurt, 1992; Rabiasz et al., 1992; Moody & Cuttitta, 1993). […] Tpi is 2,3,4,9-tetrahydro- Correspondence: A.V. Schally (151). VA Medical Center, 1601 Per- dido Street. New Orleans, LA 70146. USA. Received 1 March 1994; and in revised form 5 July 1994. Br. J. Cancer (1994), 70, 886-892 C Macmillan Press Ltd., 1994 PEPTIDE ANALOGUES IN LUNG CANCER 8U7 lH-pyrido [3,4bjindol-3-carboxylic acid, a conformationally constrained secondary amine derivate of tryptophan and Tac is thiazolidine-4-carboxylic acid. […] Animals Male athymic NCr nulmu nude mice, approximately 6 weeks old on arrival, were obtained from the NCI (Bethesda, MD, USA) and maintained under pathogen-limited conditions. Cell lines The human SCLC cell line NCI-H69, was obtained from the American Type Cell Culture (ATCC), Rockville, MD, USA and the non-SCLC cell line NCI-H157, from Dr H. Oie, NCI-Navy Medical Oncology Branch, Bethesda, MD, USA. These cell lines were cultured in RPMI-1640 medium supple- mented with 4 mM L-glutamine, 50 units ml-I penicilln G sodium, SOigml-' streptomycin sulphate, 0.125pgml-' amphotericin B and 10% fetal bovine serum at 3TC in a humidified 95% air/5% carbon dioxide atmosphere. CeLs were passaged weekly and routinely monitored for myco- plasma contamination using a detection kit (Boehringer- Mannheim, Mannheim, Germany). All culture media com- ponents were purchased from Gibco (Grand Island, NY, USA). Receptor assays Preparation of membranes for receptor studies was described previously (Halmos et al., 1993). Iodinated EGF and IGF-I were purchased from Amersham (Arlington Heights, IL, USA). Radioiodination of other peptides and receptor bind- ing of EGF, IGF-I, somatostatin and bombesin/GRP were performed as previously described (Srkalovic et al., 1989; Szepeshazi et al., 1992). Complete displacement assays on tumour membranes were done only once because of the shortage of tumour material. The LIGAND PC computerised curve-fitting programme of Munson and Rodbard (1980) was used to determine the types of receptor binding, dissociation constant (Kd) values, and the maximal binding capacity (BDj) of receptors. […] The number of mitotic and apoptotic cells per 1,000 cells was determined, and the percentage area of necrosis in tumour sections was examined using the point-counting method (Szepeshazi et al., 1991, 1992), in which the crossing points of an ocular net that coincide with necrosis in various sections are counted. Radiommunoassays Serum levels of growth hormone were determined by double- antibody radioimmunoassay (RIA) using materials supplied by the National Hormone and Pituitary Program of the National Institute of Diabetes and Digestive and Kidney Diseases (NIDDK).

[3] = tested on: human SCLC cell line NCI-H69; assay: Growth of H69 SCLC xenografts in nude mice; format: in vivo, human (xenograft in male athymic nude mice)
Excerpt: Br. J. Cancer (1994). 70, 886 892 ? Macmillan Press Ltd.. […] Bombesin GRP antagonists. […] Lung carcinoma is the leading cause of cancer-related deaths in the western world. It is estimated that in 1992 there were approximately 168,000 new cases of lung cancer in the US and that about 146,000 deaths occurred from this disease (Boring et al., 1992). […] The growth factors such as bombesin/gastrin-releasing pep- tide (GRP), epidermal growth factor, (EGF), transforming growth factor a (TGF-x) and insulin-like growth factor I(IGF-I) appear to play a role in the proliferation and pro- gression of lung cancer (Cuttitta et al., 1985; Veale et al., 1987; Minuto et al., 1988; Siegfried & Owens, 1988; Macaulay et al., 1990; Tateishi et al., 1991; Damstrup et al., 1992; Sethi & Rozengurt, 1992; Rabiasz et al., 1992; Moody & Cuttitta, 1993). […] Tpi is 2,3,4,9-tetrahydro- Correspondence: A.V. Schally (151). VA Medical Center, 1601 Per- dido Street. New Orleans, LA 70146. USA. Received 1 March 1994; and in revised form 5 July 1994. Br. J. Cancer (1994), 70, 886-892 C Macmillan Press Ltd., 1994 PEPTIDE ANALOGUES IN LUNG CANCER 8U7 lH-pyrido [3,4bjindol-3-carboxylic acid, a conformationally constrained secondary amine derivate of tryptophan and Tac is thiazolidine-4-carboxylic acid. […] Animals Male athymic NCr nulmu nude mice, approximately 6 weeks old on arrival, were obtained from the NCI (Bethesda, MD, USA) and maintained under pathogen-limited conditions. Cell lines The human SCLC cell line NCI-H69, was obtained from the American Type Cell Culture (ATCC), Rockville, MD, USA and the non-SCLC cell line NCI-H157, from Dr H. Oie, NCI-Navy Medical Oncology Branch, Bethesda, MD, USA. These cell lines were cultured in RPMI-1640 medium supple- mented with 4 mM L-glutamine, 50 units ml-I penicilln G sodium, SOigml-' streptomycin sulphate, 0.125pgml-' amphotericin B and 10% fetal bovine serum at 3TC in a humidified 95% air/5% carbon dioxide atmosphere. CeLs were passaged weekly and routinely monitored for myco- plasma contamination using a detection kit (Boehringer- Mannheim, Mannheim, Germany). All culture media com- ponents were purchased from Gibco (Grand Island, NY, USA). Receptor assays Preparation of membranes for receptor studies was described previously (Halmos et al., 1993). Iodinated EGF and IGF-I were purchased from Amersham (Arlington Heights, IL, USA). Radioiodination of other peptides and receptor bind- ing of EGF, IGF-I, somatostatin and bombesin/GRP were performed as previously described (Srkalovic et al., 1989; Szepeshazi et al., 1992). Complete displacement assays on tumour membranes were done only once because of the shortage of tumour material. The LIGAND PC computerised curve-fitting programme of Munson and Rodbard (1980) was used to determine the types of receptor binding, dissociation constant (Kd) values, and the maximal binding capacity (BDj) of receptors. In order to determine the specificity of the binding sites for radiolabelled EGF, IGF-I, somatostatin and bombesin to lung cancer membranes, various structuraly related and unrelated peptides were tested for their ability to inhibit the binding of the tracers. Histological procedure The histological procedures were the same as described previously (Szepeshazi et al., 1991, 1992). The number of mitotic and apoptotic cells per 1,000 cells was determined, and the percentage area of necrosis in tumour sections was examined using the point-counting method (Szepeshazi et al., 1991, 1992), in which the crossing points of an ocular net that coincide with necrosis in various sections are counted. Radiommunoassays Serum levels of growth hormone were determined by double- antibody radioimmunoassay (RIA) using materials supplied by the National Hormone and Pituitary Program of the National Institute of Diabetes and Digestive and Kidney Diseases (NIDDK).

[4] = tested on: IGF-I receptors in membranes of SCLC H69 tumours; assay: IGF-I receptor binding on H69 tumour membranes after in vivo treatment; set-up: species or system human; settings: Table IV, Experiment I (SCLC-H69), control 294, done once
Excerpt: as §1, with “USA).” for “USA). Receptor assays Preparation of membranes for receptor studies was described previously (Halmos et al., 1993). Iodinated EGF and IGF-I were purchased from Amersham (Arlington Heights, IL, USA). Radioiodination of other peptides and receptor bind- ing of EGF, IGF-I, somatostatin and bombesin/GRP were performed as previously described (Srkalovic et al., 1989; Szepeshazi et al., 1992). Complete displacement assays on tumour membranes were done only once because of the shortage of tumour material. The LIGAND PC computerised curve-fitting programme of Munson and Rodbard (1980) was used to determine the types of receptor binding, dissociation constant (Kd) values, and the maximal binding capacity (BDj) of receptors.”

[5] = tested on: Bombesin/GRP receptors in membranes of SCLC H69 tumours; assay: Bombesin/GRP receptor binding on H69 tumour membranes after in vivo treatment; set-up: species or system human
Excerpt: as §1

[6] = tested on: EGF receptors in membranes of SCLC H69 tumours; assay: EGF receptor binding on H69 tumour membranes after in vivo treatment; set-up: species or system human; settings: Table IV, Experiment I (SCLC-H69); tumour membranes after in vivo treatment; control 278; ten-point displacement in triplicate tubes, done once
Excerpt: as §1

[7] = Serum gastrin radioimmunoassay in nude mice; format: in vivo; settings: Table III, Experiment I (SCLC H-69), after treatment; double-antibody RIA; control 130.0 ? 10.8; means ? s.e.; **P < 0.01 vs control
EGF receptors = settings: various cancer lines and cancer specimens; ref Liebow et al., 1992; cited from earlier work
Excerpt: (§2) Br. J. Cancer (1994). 70, 886 892 ? Macmillan Press Ltd..

IGF-I levels = settings: patients with SCLC; ref Macauley et al. (1991); cited from earlier work
Excerpt: as §2

[8] = tested on: MIA PaCa-2 human pancreatic cancer cell line; settings: ref Liebow et al., 1989; cited from earlier work
Excerpt: as §2

[Tpi6, Leu'3*(CH2N)Tpi'4 bombesin (6-16) [RC-3440]
Body weight [1]: 26.2 ± 1.3 g | Somatostatin maximal binding capacity (Bmax) [2]: 501 fmol mg-'protein | Tumour volume, final ([3]; Table I, Experiment I (SCLC-H69), 5 weeks s.c. peritumoral, RC-160 100 µg/day, RC-3440, RC-3095, RC-3950-II 20 µg/day per animal, control 249.7 ? 182.3, means ? s.d., ten animals per group, *P<0.05 vs control): 74.1 mm³ | Tumour weight ([3]; Table I, Experiment I (SCLC-H69), 5 weeks s.c. peritumoral, RC-160 100 µg/day, antagonists 20 µg/day per animal, control 0.27 ? 0.19, means ? s.d., *P<0.05 vs control): 0.076 ± 0.04* g | Tumour doubling time ([3]; Table I, Experiment I (SCLC-H69), 5 weeks, RC-160 100 µg/day, antagonists 20 µg/day per animal s.c., control 7.5): 12.1 days | Growth of H69 SCLC tumours (in words) ([3]; s.c. peritumorally, RC-160 100 µg, bombesin/GRP antagonists 20 µg per animal per day, 5 weeks): inhibited the growth of H69 SCLC tumours | IGF-I maximal binding capacity (Bmax) [4]: 255 fmol mg' protein | Bombesin/GRP maximal binding capacity (Bmax) ([5]; Table IV, Experiment I (SCLC-H69), tumour membranes after in vivo treatment, control 420, done once): 255 fmol mg-'protein | Concentration of receptors for bombesin/GRP on H69 tumours (in words) ([5]; after in vivo treatment): markedly dereased | EGF maximal binding capacity (Bmax) [6]: 134 fmol mg' protein | Serum gastrin [7]: 92.7 8.2 pg ml'

gastrin-releasing peptide (VPLPAGGGTVLTKMYPRGNHWAVGHLM; ends and bridges not checked; UniProt P07492 24-50, looked up) [GRP]
Effect on phosphorylation of EGF receptors (in words) (EGF receptors): enhance the phosphorylation of EGF receptors

octreotide
IGF-I levels (in words) (IGF-I levels): reduced IGF-I levels

somatostatin: native peptide somatostatin (AGCKNFFWKTFTSC; disulfide 3-14; ends not checked; UniProt P61278 103-116, looked up) [reference compound]
Effect on EGF-stimulated cell growth (in words) [8]: reversed the stimulatory effect of EGF | Effect on EGF-stimulated phosphorylation of the tyrosine kinase domain of the EGF receptors (in words) [8]: reversed the stimulatory effect of EGF
